27 compounds from patent US11555032B2, “Isoxazole derivatives as FXR agonists and methods of use thereof” (Enanta Pharmaceuticals, Inc., priority 2019, dated 2023) can be followed below.

The assay deals with T1, human FXR (NR1H4) (Homo sapiens, UniProt Q96RI1).
T1 construct: host or cells: CHO (Chinese hamster ovary) reporter cells
T1 sequence (Q96RI1 1-486): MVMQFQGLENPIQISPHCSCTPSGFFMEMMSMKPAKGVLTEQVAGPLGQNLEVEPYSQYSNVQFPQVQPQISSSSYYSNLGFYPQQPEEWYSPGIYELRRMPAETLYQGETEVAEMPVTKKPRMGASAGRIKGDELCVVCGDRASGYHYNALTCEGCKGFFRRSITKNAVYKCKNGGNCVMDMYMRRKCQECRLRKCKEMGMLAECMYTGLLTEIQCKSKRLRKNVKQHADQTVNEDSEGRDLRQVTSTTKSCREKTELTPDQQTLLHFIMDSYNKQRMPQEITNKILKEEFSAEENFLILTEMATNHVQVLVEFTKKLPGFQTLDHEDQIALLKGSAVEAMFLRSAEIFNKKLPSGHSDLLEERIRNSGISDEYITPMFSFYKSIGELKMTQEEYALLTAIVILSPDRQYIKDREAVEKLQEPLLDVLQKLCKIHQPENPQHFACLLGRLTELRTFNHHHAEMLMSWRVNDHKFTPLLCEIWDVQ
The assay can be described thus: Human FXR (NRIH4) Assay, luciferase reporter. The class given is cell-based. The conditions noted are these: CHO reporter cells expressing human NR1H4, luciferase, 22 hours incubation. From the text: Determination of a ligand mediated Gal4 promoter driven transactivation to quantify ligand binding mediated activation of FXR. FXR Reporter Assay kit purchased from Indigo Bioscience (Catalogue number: IB00601) to determine the potency and efficacy of compound developed by Enanta that can induce FXR activation. The principle application of this reporter assay system is to quantify functional activity of human FXR. The assay utilizes non-human mammalian cells, CHO (Chinese hamster ovary) cells engineered to express human NR1H4 protein (referred to as FXR). Reporter cells also incorporate the cDNA encoding beetle luciferase which catalyzes the substrates and yields photon emission. Luminescence intensity of the reaction is quantified using a plate-reading luminometer, Envision. Reporter Cells include the luciferase reporter gene functionally linked to an FXR responsive promoter. Thus, quantifying changes in luciferase expression in the treated reporter cells provides a sensitive surrogate measure of the changes in FXR activity. EC50 and efficacy (normalize to CDCA set as 100%) is determined by XLFit. The assay is according to the manufacturer's instructions. In brief, the assay was performed in white, 96 well plates using final volume of 100 ul containing cells with different doses of compounds. Retrieve Reporter Cells from −80° C. storage. Perform a rapid thaw of the frozen cells by transferring a 10 ml volume of 37° C. cell recovery medium into the tube of frozen cells. Recap the tube of Reporter Cells and immediately place it in a 37° C. water bath for 5-10 minutes. Retrieve the tube of Reporter Cell Suspension from the water bath. Sanitize the outside surface of the tube with a 70% alcohol swab, and then transfer it into the cell culture hood. Dispense 90 μl of cell suspension into each well of the 96-well Assay Plate. Transfer the plate into 37° C. incubator, allowing the cells adherent to the bottom of the well. Dilute compounds in Dilution Plate (DP), and administrate to cells at Assay Plate (AP). DMSO content of the samples was kept at 0.2%. Cells were incubated for additional 22 hours before luciferase activities were measured. Thirty minutes before intending to quantify FXR activity, remove Detection Substrate and Detection Buffer from the refrigerator and place them in a low-light area so that they may equilibrate to room temperature. Remove the plate's lid and discard all media contents by ejecting it into an appropriate waste container. Gently tap the inverted plate onto a clean absorbent paper towel to remove residual droplets. Cells will remain tightly adhered to well bottoms. Add 100 μl of luciferase detection reagent to each well of the assay plate. Allow the assay plate to rest at room temperature for at least 5 minutes following the addition of LDR. Set the instrument (Envision) to perform a single 5 second “plate shake” prior to reading the first assay well. Read time may be 0.5 second (500 mSec) per well. EC50 and Efficacy (normalize to CDCA set as 100%) is determined by XLFit.
The efficacy was normalized to CDCA set as 100%.
(In general: A reporter such as luciferase makes a cellular process visible.)

By EC50 is commonly meant the concentration at which the effect is half-maximal. Take `O=C(O)c1cc(F)cc2ncc(NC3C4CCC3CC(OCc3c(-c5ccccc5OC(F)(F)F)noc3C3CC3)C4)nc12` (stereo not drawn) [Example 26]: the EC50 is above 500 nM. Compound `COC(=O)c1ccc(S(=O)(=O)NC2C3CCC2CC(OCc2c(-c4ccccc4OC(F)(F)F)noc2C2CC2)C3)c2ccccc12` (stereo not drawn) [Example 9-2] gave an EC50 below 25 nM. As for `CC1(S(=O)(=O)NC(=O)c2cccc3nc(NC4C5CCC4CC(OCc4c(-c6ccccc6OC(F)(F)F)noc4C4CC4)C5)cnc23)CC1` (stereo not drawn) [Example 33], the EC50 is below 25 nM. The compound `O=C(O)c1ccc2c(c1)CN(C1C3CCC1CC(OCc1c(-c4c(Cl)cccc4Cl)noc1C1CC1)C3)C2` (stereo not drawn) [Example 2-2] gave an EC50 below 25 nM. Next, `COC(=O)c1cccc2c(S(=O)(=O)NC3C4CCC3CC(OCc3c(-c5ccccc5OC(F)(F)F)noc3C3CC3)C4)cccc12` (stereo not drawn) [Example 9-4]: 25 to 500 nM. `Fc1c(Br)cccc1CNC1C2CCC1CC(OCc1c(-c3ccccc3OC(F)(F)F)noc1C1CC1)C2` [Example 15, (1R,3r,5S,8s)-N-(3-bromo-2-fluorobenzyl)-3-((5-cyclopropyl-3-(2-(trifluoromethoxy)phenyl)isoxazol-4-yl)methoxy)bicyclo[3.2.1]octan-8-amine] had a 50% effective concentration (EC50) of 25 to 500 nM. Compound `O=C(O)c1ccc2cc(S(=O)(=O)C3C4CCC3CC(OCc3c(-c5ccccc5OC(F)(F)F)noc3C3CC3)C4)ccc2c1` (stereo not drawn) [Example 11-4] yielded an EC50 of 25 to 500 nM. In the case of `O=S(=O)(NC1C2CCC1CC(OCc1c(-c3ccccc3OC(F)(F)F)noc1C1CC1)C2)c1ccccc1` (stereo not drawn) [Example 9-10], the EC50 is 25 to 500 nM.

Consider `FC(F)(F)Oc1ccccc1-c1noc(C2CC2)c1COC1CC2CCC(C1)C2Nc1cnc2cc(-c3nnn[nH]3)ccc2n1` (stereo not drawn) [Example 25], for which the EC50 lay in the range of 25 to 500 nM. `NS(=O)(=O)c1ccc(NC2C3CCC2CC(OCc2c(-c4ccccc4OC(F)(F)F)noc2C2CC2)C3)nc1` (stereo not drawn) [Example 8-3] yielded a concentration giving a half-maximal response (EC50) of 25 to 500 nM. `O=S(=O)(NC1C2CCC1CC(OCc1c(-c3ccccc3OC(F)(F)F)noc1C1CC1)C2)c1cccc2ncccc12` (stereo not drawn) [Example 9-16] registered an EC50 below 25 nM. `COC(=O)c1ccc2nc(SC3C4CCC3CC(OCc3c(-c5ccccc5OC(F)(F)F)noc3C3CC3)C4)sc2c1` (stereo not drawn) [Example 11-9]: the EC50 lay within 25 to 500 nM. Take `CC(C)Oc1cc(C(=O)O)cc2sc(N[C@@H]3C[C@H]4C[C@@H]3[C@@H](OCc3c(-c5c(Cl)cccc5Cl)noc3C3CC3)C4)nc12` [Example 7]: the half-maximal effective concentration (EC50) was below 25 nM.

As to `FC(F)(F)Oc1ccccc1-c1noc(C2CC2)c1COC1CC2CCC(C1)C2Nc1ncc(-c2ccccc2)cn1` [Example 8-7, N-((1R,3r,5S,8s)-3-((5-cyclopropyl-3-(2-(trifluoromethoxy)phenyl)isoxazol-4-yl)methoxy)bicyclo[3.2.1]octan-8-yl)-5-phenylpyrimidin-2-amine], the 50% effective concentration (EC50) was above 500 nM. As for `FC(F)(F)Oc1ccccc1-c1noc(C2CC2)c1COC1CC2CCC(C1)C2Nc1nc2c(C3CC3)cc(-c3nnn[nH]3)cc2s1` (stereo not drawn) [Example 13-5], the EC50 is below 25 nM. With `O=C(O)c1ccc2nc(NC3C4CCC3CC(OCc3c(-c5ccccc5OC(F)(F)F)noc3C3CC3)C4)cnc2c1` (stereo not drawn) [Example 29], the concentration giving a half-maximal response (EC50) is below 25 nM. Compound `CC(C)Oc1cc(C(=O)O)cc2sc(NC3C4CCC3CC(OCc3c(-c5c(Cl)cccc5Cl)noc3C3CC3)C4)nc12` [Example 2, 2-(((1R,3r,5S,8r)-3-((5-cyclopropyl-3-(2,6-dichlorophenyl)isoxazol-4-yl)methoxy)bicyclo[3.2.1]octan-8-yl)amino)-4-isopropoxybenzo[d]thiazole-6-carboxylic acid] had a concentration giving a half-maximal response (EC50) below 25 nM. `O=C(NS(=O)(=O)C1CC1)c1cccc2nc(NC3C4CCC3CC(OCc3c(-c5ccccc5OC(F)(F)F)noc3C3CC3)C4)cnc12` (stereo not drawn) [Example 34] gave an EC50 below 25 nM. Compound `O=C(O)c1ccc2cc(S(=O)(=O)NC3C4CCC3CC(OCc3c(-c5ccccc5OC(F)(F)F)noc3C3CC3)C4)ccc2c1` (stereo not drawn) [Example 9-7] showed a half-maximal effective concentration (EC50) of 25 to 500 nM. The compound `CC(C)Oc1cc(CO)cc2sc(NC3C4CCC3CC(OCc3c(-c5ccccc5OC(F)(F)F)noc3C3CC3)C4)nc12` (stereo not drawn) [Example 10-2] had a concentration for a half-maximal effect (EC50) below 25 nM. Take `O=C(O)c1ccc2cc(SC3C4CCC3CC(OCc3c(-c5ccccc5OC(F)(F)F)noc3C3CC3)C4)ccc2c1` [Example 11-2, 6-(((1R,3r,5S,8s)-3-((5-cyclopropyl-3-(2-(trifluoromethoxy)phenyl)isoxazol-4-yl)methoxy)bicyclo[3.2.1]octan-8-yl)thio)-2-naphthoic acid]: the 50% effective concentration (EC50) is 25 to 500 nM. For the compound `O=C(O)c1cc2sc(NC3C4CCC3CC(OCc3c(-c5ccccc5OC(F)(F)F)noc3C3CC3)C4)nc2c(F)c1F` (stereo not drawn) [Example 3-9], the 50% effective concentration (EC50) was below 25 nM. On to `COC(=O)c1ccc2cc(S(=O)(=O)C3C4CCC3CC(OCc3c(-c5ccccc5OC(F)(F)F)noc3C3CC3)C4)ccc2c1` [Example 11-3, methyl 6-(((1R,3r,5S,8s)-3-((5-cyclopropyl-3-(2-(trifluoromethoxy)phenyl)isoxazol-4-yl)methoxy)bicyclo[3.2.1]octan-8-yl)sulfonyl)-2-naphthoate], for which the EC50 was 25 to 500 nM. The result for `CCOC(=O)c1cccc(S(=O)(=O)C2C3CCC2CC(OCc2c(-c4ccccc4OC(F)(F)F)noc2C2CC2)C3)c1` (stereo not drawn) [Example 11-7] reads 25 to 500 nM; that for `O=C(O)c1ccc2c(c1)CN(C1C3CCC1CC(OCc1c(-c4c(Cl)cccc4Cl)noc1C1CC1)C3)C2` (stereo not drawn) [Example 17], 25 to 500 nM.

In the case of `O=C(O)c1cc(F)c2nc(S(=O)(=O)C3C4CCC3CC(OCc3c(-c5ccccc5OC(F)(F)F)noc3C3CC3)C4)sc2c1` (stereo not drawn) [Example 45], the concentration for a half-maximal effect (EC50) lay in the range of 25 to 500 nM.

`CCOC(=O)c1cc(F)c2nc(SC3C4CCC3CC(OCc3c(-c5ccccc5OC(F)(F)F)noc3C3CC3)C4)sc2c1` (stereo not drawn) [Example 11-16] showed an EC50 of 25 to 500 nM.
